Measured values taken from ChEMBL document CHEMBL3763039, “Development and Characterization of Potent Cyclic Acyldepsipeptide Analogues with Increased Antimicrobial Activity” (2016).
Values after ≈ are worked out from the molar mass of the structure shown. Where a SMILES comes first, the peptide text is derived from it. Bridges are numbered along the chain shown (N, C = ends). [ ]: non-standard residue; d: D form. The star is where a group is joined. Phe(3,5-F2) = N[C@@H](Cc1cc(F)cc(F)c1)C(=O)O; Pro(4R-Me) = C[C@H]1CN[C@H](C(=O)O)C1; aThr = C[C@H](O)[C@H](N)C(=O)O; Pip = O=C(O)[C@@H]1CCCCN1; X1 = CCC/C=C/C=C/C(=O)*

Tests used:
Type in all cases: functional
[1] = system: Streptococcus pneumoniae; test: Antibacterial activity against Streptococcus pneumoniae D39 incubated for 16 to 18 hrs by broth microdilution method
[2] = system: Bacillus subtilis; test: Antibacterial activity against Bacillus subtilis PY79 incubated for 16 to 18 hrs by broth microdilution method
[3] = system: Escherichia coli; test: Antibacterial activity against Escherichia coli MC4100 expressing lptD-4213 incubated for 16 to 18 hrs by broth microdilution method
[4] = system: Listeria innocua; test: Antibacterial activity against Listeria innocua incubated for 16 to 18 hrs by broth microdilution method
[5] = system: Pseudomonas aeruginosa; test: Antibacterial activity against Pseudomonas aeruginosa PAO1 incubated for 16 to 18 hrs by broth microdilution method
[6] = system: Escherichia coli; test: Antibacterial activity against Escherichia coli MC4100 incubated for 16 to 18 hrs by broth microdilution method
[7] = system: Neisseria gonorrhoeae; test: Antibacterial activity against chloramphenicol-resistant Neisseria gonorrhoeae N.279 incubated for 16 to 18 hrs by broth microdilution method
[8] = system: Neisseria meningitidis; test: Antibacterial activity against clpP deficient Neisseria meningitidis H44/76 incubated for 16 to 18 hrs by broth microdilution method
[9] = system: Neisseria meningitidis; test: Antibacterial activity against Neisseria meningitidis H44/76 incubated for 16 to 18 hrs by broth microdilution method
[10] = system: Enterococcus faecalis; test: Antibacterial activity against vancomycin-resistant Enterococcus faecalis V583 incubated for 16 to 18 hrs by broth microdilution method
[11] = system: Staphylococcus aureus; test: Antibacterial activity against methicillin-resistant Staphylococcus aureus 1784A incubated for 16 to 18 hrs by broth microdilution method
[12] = system: Staphylococcus aureus; test: Antibacterial activity against Staphylococcus aureus subsp. aureus Newman clinical isolate incubated for 16 to 18 hrs by broth microdilution method
[13] = system: Staphylococcus aureus; test: Antibacterial activity against Staphylococcus aureus ATCC 29213 incubated for 16 to 18 hrs by broth microdilution method

| Structure (SMILES) | MIC [1] [µg/mL] | MIC [2] [µg/mL] | MIC [3] [µg/mL] | MIC [4] [µg/mL] | MIC [5] [µg/mL] | MIC [6] [µg/mL] | MIC [7] [µg/mL] | MIC [8] [µg/mL] | MIC [9] [µg/mL] | MIC [10] [µg/mL] | MIC [11] [µg/mL] | MIC [12] [µg/mL] | MIC [13] [µg/mL] |
| --- | --- | --- | --- | --- | --- | --- | --- | --- | --- | --- | --- | --- | --- |
| CCCC/C=C/C(=O)N[C@@H](Cc1cc(F)cc(F)c1)C(=O)N[C@@H]1C(=O)N2CCC[C@H]2C(=O)N2CC[C@H](C)C[C@H]2C(=O)N[C@@H](C)C(=O)N2C[C@H](C)C[C@H]2C(=O)O[C@H]1C | ≤ 0.0625 | ≤ 0.0625 | > 128 | ≤ 0.0625 | > 128 | > 128 | 0.125 (≈ 0.156 µM) | > 128 | 0.0625 (≈ 0.0782 µM) | 0.0156 (≈ 0.0195 µM) | 8 (≈ 10 µM) | 0.25 (≈ 0.313 µM) | 0.0078 (≈ 0.00976 µM) |
| CCC/C=C/C=C/C(=O)N[C@@H](Cc1cc(F)cc(F)c1)C(=O)N[C@@H]1C(=O)N2CCC[C@H]2C(=O)N2CCCC[C@H]2C(=O)N[C@@H](C)C(=O)N2C[C@H](C)C[C@H]2C(=O)O[C@H]1C (X1-[Phe(3,5-F2)][aThr]P[Pip]A[Pro(4R-Me)]; ester 2-C) | ≤ 0.0625 | ≤ 0.0625 | 4 (≈ 5.02 µM) | ≤ 0.0625 | > 128 | > 128 | 0.0078 (≈ 0.00979 µM) | > 128 | 0.0313 (≈ 0.0393 µM) | 0.0039 (≈ 0.00489 µM) | 0.125 (≈ 0.157 µM) | 0.0625 (≈ 0.0784 µM) | 0.0019 (≈ 0.00238 µM) |
